ChEMBL document CHEMBL1201862, “PubChem BioAssay data set” (2004)
Values joined by “and” are separate entries in the source; they are usually repeats but may differ in a detail not shown here. Equal entries are not always repeated. Active and inactive are the calls of the source.

Assays:
Cytochrome P450 3A4 = Cytochrome P450 3A4 (Homo sapiens, UniProt P08684);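 note: CYP3A4 tested as one member of a cytochrome P450 panel screen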
[1] = test system: Streptococcus sp. 'group A'; assay: Streptococcus pyogenes SK(-)GAS viability under kanamycin – luminescence, BacTiterGlo, confirmation, counter-screen for streptokinase expression inhibitor project, dose response (AID 1900); format: functional, organism-based
Streptokinase A = molecular target: T1, Streptokinase A (Streptococcus pyogenes serotype M1, UniProt P10520); assay: viability-normalized secreted streptokinase activity reduction – plasminogen activation absorbance, OD405, dose response (AID 1914); format: functional, Streptococcus pyogenes M1 GAS;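 note: secreted streptokinase activity via plasminogen activation per viability signal from cell pellet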
T1 sequence (P10520 whole entry): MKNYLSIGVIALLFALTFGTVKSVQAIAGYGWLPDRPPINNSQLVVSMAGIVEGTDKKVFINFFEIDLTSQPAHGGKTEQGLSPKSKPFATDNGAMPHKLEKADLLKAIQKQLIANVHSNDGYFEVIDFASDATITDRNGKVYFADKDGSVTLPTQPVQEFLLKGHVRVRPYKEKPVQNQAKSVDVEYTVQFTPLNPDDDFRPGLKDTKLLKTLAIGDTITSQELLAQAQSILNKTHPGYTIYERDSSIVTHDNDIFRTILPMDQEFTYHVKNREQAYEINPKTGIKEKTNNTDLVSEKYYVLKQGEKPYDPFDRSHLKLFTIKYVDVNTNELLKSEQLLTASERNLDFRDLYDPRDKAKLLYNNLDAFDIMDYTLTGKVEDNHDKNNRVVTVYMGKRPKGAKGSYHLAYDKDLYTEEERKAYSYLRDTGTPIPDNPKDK

Streptococcus = assay: GAS UMAA2166 growth inhibition – luminescence, BacTiterGlo, counter-screen for streptokinase expression inhibitor project, dose response (AID 1915); format: functional, organism-based;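 note: potency for reduction of bacterial viability or growth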
Cytochrome P450 2D6 = Cytochrome P450 2D6 (Homo sapiens, UniProt P10635);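 note: CYP2D6 member of a cytochrome P450 panel assay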
Chain of Cytochrome P450 2D6 (P10635 whole entry): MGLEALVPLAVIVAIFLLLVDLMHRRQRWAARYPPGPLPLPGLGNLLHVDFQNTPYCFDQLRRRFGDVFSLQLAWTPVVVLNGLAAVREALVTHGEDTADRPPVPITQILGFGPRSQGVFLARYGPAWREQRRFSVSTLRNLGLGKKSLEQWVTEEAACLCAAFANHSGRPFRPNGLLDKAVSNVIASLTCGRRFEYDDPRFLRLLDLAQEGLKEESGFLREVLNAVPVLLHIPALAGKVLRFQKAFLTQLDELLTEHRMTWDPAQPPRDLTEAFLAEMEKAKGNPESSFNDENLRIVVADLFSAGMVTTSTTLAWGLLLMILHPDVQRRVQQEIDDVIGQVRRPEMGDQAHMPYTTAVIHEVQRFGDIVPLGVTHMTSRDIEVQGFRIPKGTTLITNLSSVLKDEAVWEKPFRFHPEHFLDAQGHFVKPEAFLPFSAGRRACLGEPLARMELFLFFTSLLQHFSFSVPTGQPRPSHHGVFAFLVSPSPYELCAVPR

Cytochrome P450 2C19 = Cytochrome P450 2C19 (Homo sapiens, UniProt P33261); assay: Cytochrome panel assay with activity outcomes. Panel member name: p450-cyp2c19 Compounds with AC50 equal or less than 10 uM are considered active; format: functional
Chain of Cytochrome P450 2C19 (P33261 whole entry): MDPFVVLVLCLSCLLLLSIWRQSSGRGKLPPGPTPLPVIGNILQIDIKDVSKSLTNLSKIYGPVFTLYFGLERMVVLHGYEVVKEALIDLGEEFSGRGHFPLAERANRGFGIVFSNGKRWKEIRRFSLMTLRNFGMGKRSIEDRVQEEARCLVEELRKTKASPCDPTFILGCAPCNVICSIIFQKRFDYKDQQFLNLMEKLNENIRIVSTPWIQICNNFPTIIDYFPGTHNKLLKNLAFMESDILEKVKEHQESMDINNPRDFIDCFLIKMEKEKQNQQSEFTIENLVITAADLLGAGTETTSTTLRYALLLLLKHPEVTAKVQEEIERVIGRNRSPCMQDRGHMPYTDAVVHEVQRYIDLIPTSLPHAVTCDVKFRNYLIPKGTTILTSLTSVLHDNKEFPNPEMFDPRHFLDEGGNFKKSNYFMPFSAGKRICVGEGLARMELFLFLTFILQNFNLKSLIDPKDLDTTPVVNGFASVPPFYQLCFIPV

Cytochrome P450 2C9 = Cytochrome P450 2C9 (Homo sapiens, UniProt P11712)
Chain of Cytochrome P450 2C9 (P11712 whole entry): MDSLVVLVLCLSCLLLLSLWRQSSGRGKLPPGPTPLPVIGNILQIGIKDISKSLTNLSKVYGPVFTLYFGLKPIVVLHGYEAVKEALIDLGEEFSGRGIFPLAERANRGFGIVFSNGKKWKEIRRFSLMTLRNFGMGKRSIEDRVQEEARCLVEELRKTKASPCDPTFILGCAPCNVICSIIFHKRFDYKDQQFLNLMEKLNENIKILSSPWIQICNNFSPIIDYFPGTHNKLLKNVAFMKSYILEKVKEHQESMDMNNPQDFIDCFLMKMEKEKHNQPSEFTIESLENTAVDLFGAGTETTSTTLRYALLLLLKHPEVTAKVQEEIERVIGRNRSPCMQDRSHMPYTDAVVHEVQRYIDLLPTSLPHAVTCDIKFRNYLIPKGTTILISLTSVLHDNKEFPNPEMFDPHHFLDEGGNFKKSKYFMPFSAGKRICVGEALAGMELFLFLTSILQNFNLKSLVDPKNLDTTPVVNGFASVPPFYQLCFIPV

[2] = Luminescence Cell-Based Dose Retest to Confirm Inhibitors of Cancer Stem Cells. [Related pubchem assays (depositor defined):AID2717, AID2721]; format: functional; conditions: Homo sapiens
[3] = molecular target: T2, Heat shock factor protein 1 (Mus musculus, UniProt P38532); assay: enhancement of HSF1-driven luciferase signal – cell-based, NIH3T3, luminescence, dose retest, confirmation (AID 435004); format: functional;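 note: stress induced by proteasome inhibitor MG132 added 30 min after compound; luciferase reporter driven by HSF1 response element in NIH3T3 cells; actives raise luminescence as potentiators of the MG132 stress response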
T2 sequence (P38532 whole entry): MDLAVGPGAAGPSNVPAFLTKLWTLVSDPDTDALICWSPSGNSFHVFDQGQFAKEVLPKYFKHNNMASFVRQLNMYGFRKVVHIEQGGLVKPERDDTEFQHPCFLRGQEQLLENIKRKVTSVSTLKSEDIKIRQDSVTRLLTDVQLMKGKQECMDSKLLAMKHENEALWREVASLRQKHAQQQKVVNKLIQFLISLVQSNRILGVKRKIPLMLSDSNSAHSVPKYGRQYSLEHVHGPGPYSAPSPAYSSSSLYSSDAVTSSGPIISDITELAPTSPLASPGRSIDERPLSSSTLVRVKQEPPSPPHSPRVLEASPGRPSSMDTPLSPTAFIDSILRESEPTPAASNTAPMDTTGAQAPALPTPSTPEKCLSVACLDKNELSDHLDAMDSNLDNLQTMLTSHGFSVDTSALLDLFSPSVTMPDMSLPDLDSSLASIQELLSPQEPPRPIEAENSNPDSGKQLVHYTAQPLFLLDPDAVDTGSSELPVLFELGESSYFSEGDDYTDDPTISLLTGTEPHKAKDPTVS

INS1 = assay: INS-1E survival protection against cytokine death – cell-based, luminescence, retest, dose response (AID 449756); format: functional; conditions: Rattus norvegicus;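 note: cell death triggered by IL-1 beta plus TNF-alpha plus IFN-gamma mixture; protective hits raise ATP signal compared with cytokine alone wells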

Chain of Cytochrome P450 3A4 (P08684 whole entry): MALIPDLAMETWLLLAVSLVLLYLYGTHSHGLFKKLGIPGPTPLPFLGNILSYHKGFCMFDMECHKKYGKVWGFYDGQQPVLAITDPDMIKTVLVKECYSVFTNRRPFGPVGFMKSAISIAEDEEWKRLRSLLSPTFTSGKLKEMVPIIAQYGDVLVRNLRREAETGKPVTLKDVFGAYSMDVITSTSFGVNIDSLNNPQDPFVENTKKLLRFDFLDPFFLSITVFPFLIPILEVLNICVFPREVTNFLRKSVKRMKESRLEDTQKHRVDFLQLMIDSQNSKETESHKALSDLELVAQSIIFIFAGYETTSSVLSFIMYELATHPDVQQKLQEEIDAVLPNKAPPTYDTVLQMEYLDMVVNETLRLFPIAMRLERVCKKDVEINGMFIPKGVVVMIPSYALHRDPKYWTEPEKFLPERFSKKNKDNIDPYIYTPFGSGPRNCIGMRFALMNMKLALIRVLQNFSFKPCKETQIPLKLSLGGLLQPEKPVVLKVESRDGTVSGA

c1ccc(CNc2cc(-c3ccoc3)ncn2)cc1
AC50 (Cytochrome P450 3A4): 12.6 µM (inconclusive)

COc1ccc(S(=O)(=O)N2CCOC2CNC(=O)C(=O)NCc2ccccc2Cl)cc1 (configuration not stated)
EC50 [1]: > 150 µM (not active) | EC50 (Streptokinase A): > 150 µM (not active) | EC50 (Streptococcus): > 150 µM (not active)

O=C(c1ccco1)N1CCC[C@@]2(CCN(Cc3ccccc3)C2)C1
AC50 (Cytochrome P450 3A4): 20 µM (inconclusive)

CC(C)CN1CCCC2(CCN(C(=O)c3cccc(F)c3)CC2)C1
AC50 (Cytochrome P450 3A4): 25.1 µM (inconclusive) | AC50 (Cytochrome P450 2D6): 12.6 µM (inconclusive)

O=C(CSc1ccccc1)Nc1ccc(N2CCN(c3ccccc3)CC2)c(F)c1
AC50 (Cytochrome P450 2C19; read-out: AC50): 39.8 µM (inconclusive) | AC50 (Cytochrome P450 2C9): 0.447 µM (inconclusive)

C[n+]1ccc(/C=C/c2ccc(Br)cc2)cc1
AC50 (Cytochrome P450 2C19; read-out: AC50): 3.98 µM (inconclusive)

O=C(CN1CCCCCC1)Nc1ccccc1Oc1ccccc1
AC50 [2]: 0.493 µM (active)

Cc1noc(C)c1-c1nccc(NCc2ccccc2)n1
AC50 (Cytochrome P450 2D6): 39.8 µM (inconclusive)

CC(=O)N1N=C(c2cccc([N+](=O)[O-])c2)OC1c1ccccc1Cl (configuration not stated)
AC50 (Cytochrome P450 3A4): 39.8 µM (inconclusive)

O=c1c(-c2ccc(Cl)cc2)nc2cnc(N3CCNCC3)nc2n1CCc1ccccc1
AC50 (Cytochrome P450 3A4): 31.6 µM (inconclusive)

COc1ccc(C(=O)c2coc3ccc(O)c(CN(C)C)c23)cc1
EC50 [3]: > 260 µM (inactive)

O=[N+]([O-])c1cccc(-c2nnc(CNC3CC3)o2)c1
EC50 [3]: > 260 µM (inactive)

COC(=O)[C@@]1(Cc2ccccc2)[C@H]2c3cc(C(=O)N(C)C)n(Cc4cc(C)n(C)n4)c3C[C@H]2CN1C(=O)c1ccccc1
AC50 (Cytochrome P450 2D6): 39.8 µM (inconclusive)

CCOC(=O)c1c(-c2ccccc2)csc1NC(=O)c1cccc(N2C(=O)CCC2=O)c1
AC50 (Cytochrome P450 2D6): 0.0112 µM (inconclusive)

COc1ccc(NC(=O)c2nn(C)c(=O)c3ccccc23)cc1S(=O)(=O)Nc1ccccc1Cl
EC50 [3]: 18.4 µM (active)

O=C(CSc1nnc(-c2ccncc2)n1Cc1ccccc1)Nc1nccs1
AC50 (Cytochrome P450 2D6): 17.8 µM (inconclusive)

CC(=O)OC[C@@H]1O[C@H](C/C=N\O[C@@H](C)c2cn([C@H](CO)Cc3ccccc3)nn2)C=C[C@@H]1OC(C)=O
AC50 (Cytochrome P450 3A4): 5.01 µM (inconclusive) and 3.98 µM (inconclusive)

CN(Cc1ccc(N(C)C)cc1)C(=O)c1cc2ccccc2o1
EC50 [1]: > 150 µM (not active) | EC50 (Streptokinase A): > 150 µM (not active) | EC50 (Streptococcus): > 150 µM (not active)

CCOC(=O)C1=C(CCc2ccccc2)NC(=O)NC1c1ccc2ccccc2c1 (configuration not stated)
AC50 (INS1): 31.5 µM (active)

CS(=O)(=O)N1CCC2(CCCN(Cc3ccc(C#N)cc3)C2)CC1
AC50 (Cytochrome P450 2D6): 20 µM (inconclusive)

Cc1cnc(CNc2ncncc2-c2ccccc2CN(C)C)cn1
AC50 (Cytochrome P450 2D6): 39.8 µM (inconclusive)

CCCOc1ccc(C(=O)NNC(=S)NC(=O)c2ccccc2[N+](=O)[O-])cc1
EC50 [1]: 2.79 µM (active) | EC50 (Streptokinase A): > 150 µM (not active) | EC50 (Streptococcus): 10.8 µM (active)

O=C(c1ccncc1)N1CCC[C@@]2(CCN(Cc3nccs3)C2)C1
AC50 (Cytochrome P450 2D6): 20 µM (inconclusive)

C[N+]1(C)CCC[C@@H](OC(=O)C(O)(c2ccccc2)c2ccccc2)C1
AC50 (Cytochrome P450 2C19): inconclusive | AC50 (Cytochrome P450 2D6): 10 µM (inconclusive)

O=C(c1cnccn1)N1CCC2(CCCN(c3ccccn3)C2)CC1
AC50 (Cytochrome P450 3A4): 7.94 µM (inconclusive) | AC50 (Cytochrome P450 2D6): 20 µM (inconclusive)

CCN(CC)C(S)=Nc1ccc(Cl)c(Cl)c1
EC50 [3]: > 260 µM (inactive)

OC(COC(c1ccc(F)cc1)c1ccc(F)cc1)CN1CCc2ccccc2C1 (configuration not stated)
AC50 (INS1): 18.2 µM (active)

C#CCn1c(S(=O)(=O)Cc2ccc(OC)cc2)nc(-c2ccccc2)c1-c1ccccc1
AC50 (Cytochrome P450 2D6): 14.1 µM (inconclusive)

CCOC(=O)c1c(-c2ccccc2)nc2c(C)cccn12
AC50 (Cytochrome P450 3A4): 14.1 µM (inconclusive) | AC50 (Cytochrome P450 2D6): 0.00562 µM (inconclusive)

c1cc(CCN2CCCCC2)ccn1
AC50 (Cytochrome P450 3A4): 6.31 µM (inconclusive)

Cc1ccc(NC(=O)Cn2c(CCC(=O)O)ccc2-c2cccs2)cc1
EC50 [3]: > 260 µM (inactive)

Cn1c(CO)cnc1SCC(=O)c1ccc(Cl)cc1
EC50 [3]: > 260 µM (inactive)

CCOC(=O)c1cnc(-n2nc(C)cc2C)nc1Nc1ccc(O)cc1
AC50 (INS1): 1.67 µM (active)

CC(=O)Oc1ccc(-c2ccc(C(=O)Nc3cccc(S(=O)(=O)N4CCOCC4)c3)cc2)cc1
AC50 [2]: 1.52 µM (active)

CCCc1nc(NC2CCCCC2)c(C#N)c2c1COC(C)(C)C2
AC50 [2]: 6.71 µM (active)

COC1=CC(=O)O[C@@H](/C=C\c2ccccc2)C1
AC50 (Cytochrome P450 2C19; read-out: AC50): 5.01 µM (inconclusive)

O=C(c1csnn1)N1CCC2(CC1)CCN(c1ccncc1)CC2
AC50 (Cytochrome P450 2C19; read-out: AC50): 39.8 µM (inconclusive) | AC50 (Cytochrome P450 2C9): 15.8 µM (inconclusive) | AC50 (Cytochrome P450 3A4): 15.8 µM (inconclusive)

O=C(Cn1ccc2ccccc2c1=O)N1CCN(c2cccc(Cl)c2)CC1
AC50 (Cytochrome P450 2C19; read-out: AC50): 7.08 µM (inconclusive) | AC50 (Cytochrome P450 3A4): 3.16 µM (inconclusive)

O=S(=O)(NCc1cc(-c2ccccc2)no1)c1ccc(Cl)cc1
AC50 (Cytochrome P450 3A4): 25.1 µM (inconclusive) | AC50 (Cytochrome P450 2D6): 20 µM (inconclusive)

O=C(COc1ccc([N+](=O)[O-])cc1)N[N-][C+]1CCCC1
AC50 (Cytochrome P450 2C19; read-out: AC50): 1.78 µM (inconclusive) | AC50 (Cytochrome P450 2C9): 0.0251 µM (inconclusive)

Nc1cc(-c2ccco2)no1
EC50 [3]: 60.4 µM (active)

COc1cc(CN2CCN(C(=O)COc3ccccc3)CC2)cc(OC)c1OC
AC50 (Cytochrome P450 2C9): 22.4 µM (inconclusive) | AC50 (Cytochrome P450 3A4): 22.4 µM (inconclusive)

C=C(CC1(C(C)NP(=O)(c2ccccc2)c2ccccc2)CC1)c1ccccc1 (configuration not stated)
AC50 (Cytochrome P450 2D6): 39.8 µM (inconclusive)

CS(=O)(=O)N1CCC[C@@]2(CCN(C(=O)Nc3cccc(C#N)c3)C2)C1
AC50 (Cytochrome P450 3A4): 20 µM (inconclusive)

C(=C\c1nc(N2CCCCCC2)c2ccccc2n1)/c1ccccc1
AC50 (INS1): 6.21 µM (active) | AC50 [2]: 3.73 µM (active)

COc1ncc2nc(-c3ccc(Cl)cc3)c(=O)n(Cc3cccs3)c2n1
AC50 (Cytochrome P450 2C9): 15.8 µM (inconclusive) | AC50 (Cytochrome P450 2D6): 2.51 µM (inconclusive)

Cn1c(=O)c(-c2ccc(F)c(F)c2)nc2cncnc21
AC50 (Cytochrome P450 3A4): 20 µM (inconclusive)

Fc1ccc(N=C(S)NCCc2ccccc2)c(F)c1F
AC50 (Cytochrome P450 2D6): 15.8 µM (inconclusive)

O=c1c2cc(Br)ccc2[nH]c(=S)n1Cc1cccnc1
AC50 (Cytochrome P450 2C9): 12.6 µM (inconclusive) | AC50 (Cytochrome P450 2D6): 8.91 µM (inconclusive)

Cc1cnc(CNc2cc(-c3ccccc3CN(C)C)ncn2)cn1
AC50 (Cytochrome P450 2D6): 12.6 µM (inconclusive)

COCCCN1C(=O)c2[nH]nc(-c3ccccc3O)c2C1c1cccc(Cl)c1 (configuration not stated)
EC50 [3]: 59.7 µM (active)

COC(=O)[C@@]1(Cc2ccc(OC)cc2)[C@@H]2[C@@H](CC(=O)[C@H]2CC(=O)C(=O)N2CCCC2)CN1C(=O)c1ccccc1
AC50 (Cytochrome P450 2C19; read-out: AC50): 25.1 µM (inconclusive) | AC50 (Cytochrome P450 2C9): 20 µM (inconclusive)

COc1ccc(-c2noc3c2-c2nc(-c4ccccc4C)sc2CC3)cc1
AC50 [2]: 0.689 µM (active)

Cc1ccc(-c2csc(NC(=O)c3c(C)noc3C)n2)s1
AC50 (INS1): 3.99 µM (active)

CC(=O)OC(C)C(=O)NS(=O)(=O)c1ccc(C)cc1 (configuration not stated)
EC50 [3]: > 260 µM (inactive)

O=C(CCc1nnc(Cc2ccc(-c3ccccc3)cc2)o1)N1CCCC1
EC50 [3]: > 260 µM (inactive)

O=C(c1ccc2nccnc2c1)N1CCCC(Nc2ccc(F)c(F)c2)C1 (configuration not stated)
EC50 [3]: > 260 µM (inactive)

CCc1cccc(NC(=O)c2cccc(S(=O)(=O)N3CCN(C)CC3)c2)c1
EC50 [3]: > 260 µM (inactive)

COc1cc(/C=N/NC(=S)NC2CC3C=CC2C3)cc(OC)c1OC (configuration not stated)
EC50 [3]: > 260 µM (inactive)

Cc1cc(N/N=C/c2cccc(Cl)c2)nc(-n2nc(C)cc2C)n1
EC50 [1]: 1.34 µM (active) | AC50 (INS1): 2.69 µM (active) | EC50 (Streptococcus): 1.61 µM (active)

Nc1ncnc2c1cnn2-c1ccccc1
AC50 (Cytochrome P450 2C19; read-out: AC50): 4.47 µM (inconclusive)

COc1ccc2c(c[n+](C)c3c4cc5c(cc4ccc23)OCO5)c1OC [CHELERYTHRINE]
AC50 (Cytochrome P450 2C9): 39.8 µM (inconclusive) | AC50 (Cytochrome P450 3A4): 31.6 µM (inconclusive) | AC50 (Cytochrome P450 2D6): 25.1 µM (inconclusive)
